The compounds below were run on substantia nigra TH (assay: Substantia nigra TH expression in MPTP Parkinson's disease model mouse (immunofluorescence)). Conditions: percentage of mean intensity of blank control group, gavage 21 days after MPTP modeling.
Assay type: in vivo
Method: Neurotoxins can be used to establish PD animal models. Currently, 1-methyl-4-phenyl-1,2,3,6-tetrahydropyridine (MPTP) is the sole synthetic toxin which is recognized to induce PD symptoms in human and non-human primates and in mice. Using MPTP subacute modeling method, C57BL/6J male mice were intraperitoneally injected with MPTP 30 mg/kg, once a day for 5 consecutive days. The experiment animals were divided into blank control group, MPTP model group, and compound treatment group. For the […] compound treatment group, the compound was administrated by gavage for 21 consecutive days after the completion of modeling; for the MPTP model group, the normal saline was administrated by gavage for 21 consecutive days after the completion of modeling; and for the blank control group, the normal saline was first intraperitoneally injected for 5 days, and then administrated by gavage for 21 days.
The main cause of PD lies in the pathological changes in the substantia nigra-striatum projection system of the brain and the progressive degeneration and loss of dopaminergic neurons. Tyrosine hydroxylase (TH) is the first enzyme in the biosynthesis of catecholamine neurotransmitters, as well as the first rate-limiting enzyme in the dopamine synthesis. It plays an important role in the synthesis and metabolism of the neurotransmitter DA. The TH in PD animal models and patients has a wide range of abnormal changes, from the gene expression to the enzyme protein content and enzyme activity. The detection of the TH expression in the midbrain and substantia nigra of PD model mice can be used to evaluate the neuroprotective activity of the compound.
Half of experiment mice in each group were taken to separate the midbrain after perfusion and fixation. The tissue was trimmed, and the substantia nigra-striatum area was taken to prepare paraffin sections. The TH immunofluorescence staining was performed in the brain sections of mice in each group. […] The experiment included blank control group, MPTP model group, positive control group (caffeic acid phenethyl ester, CAPE), prototype control group (styryl sulfone compounds 3B, 3C, 3D, and 3G, whose structures are shown as above), and target compound group.

Row | Compound | Expression (Immunofluorescence intensity %) [%]
1 | O=S(=O)(/C=C/c1ccc(O)c(O)c1)Cc1ccc(C(F)(F)F)cc1 [Compound 3B, (E)-4-{2-[(4-trifluoromethylphenyl)mesyl]ethenyl}benzene-1,2-diol, reference compound] | 83.18 ± 5.87
2 | O=S(=O)(/C=C/c1ccc(O)c(O)c1)CCCc1ccccc1 [Compound 3C, (E)-4-{2-[(3-phenylpropyl)sulfonyl]ethenyl}benzene-1,2-diol, reference compound] | 74.63 ± 9.15
3 | O=S(=O)(/C=C/c1ccc(O)c(O)c1)Cc1ccc(Cl)cc1 [Compound 3D, (E)-4-{2-[(4-chlorophenyl)mesyl]ethenyl}benzene-1,2-diol, reference compound] | 87.38 ± 4.01
4 | CC(C)(C)c1ccc(CS(=O)(=O)/C=C/c2ccc(O)c(O)c2)cc1 [Compound 3G, (E)-4-{2-[(4-t-butylphenyl)mesyl]ethenyl}benzene-1,2-diol, reference compound] | 76.08 ± 7.08
5 | CC(C)N(c1ccc(CCS(=O)(=O)/C=C/c2ccc(OC(=O)N(C)c3ccc(I)cc3)c(OCCOCc3ccccc3)c2)cc1)C(C)C [Compound A1-3, (E)-2-(2-benzyloxyethoxy)-4-{2-[4-(N,N-diisopropylamino)phenylethylsulfonyl]ethenyl}phenyl-N-(4-iodophenyl)-N-methylcarbamate] | 89.68 ± 5.69
6 | CCN(CC)C(=O)Oc1ccc(/C=C/S(=O)(=O)Cc2ccc(C(F)(F)F)cc2)cc1OC(=O)N(CC)CC [Compound B1-1, (E)-4-{2-[(4-trifluoromethylphenyl)mesyl]ethenyl}-1,2-phenylenebis(diethylcarbamate)] | 95.86 ± 4.43
7 | CCN(CC)C(=O)Oc1ccc(/C=C/S(=O)(=O)CCCc2ccccc2)cc1OC(=O)N(CC)CC [Compound C1-1, (E)-4-[2-(3-phenylpropylsulfonyl)ethenyl]-1,2-phenylenebis(diethylcarbamate)] | 96.58 ± 6.15
8 | CCN(CC)C(=O)Oc1ccc(/C=C/S(=O)(=O)Cc2ccc(Cl)cc2)cc1OC(=O)N(CC)CC [Compound D1-1, (E)-4-{2-[(4-chlorophenyl)mesyl]ethenyl}-1,2-phenylenebis(diethylcarbamate)] | 99.19 ± 3.67
9 | CC(=O)Oc1ccc(/C=C/S(=O)(=O)Cc2c(F)c(F)c(F)c(F)c2F)cc1OC(=O)NC(=O)c1ccc([N+](=O)[O-])c(C)c1 [Compound D5-4, (E)-2-[N-(3-methyl-4-nitrobenzoyl)carbamoyloxy]-4-{2-[(perfluorophenyl)mesyl]ethenyl}phenyl acetate] | 99.86 ± 6.27
10 | CNC(=O)Oc1ccc(/C=C/S(=O)(=O)CC(Cl)c2ccc(Cl)c([N+](=O)[O-])c2)cc1O (centres unmarked) [Compound E2-2, (E)-4-{2-[2-chloro-2-(4-chloro-3-nitrophenyl)ethylsulfonyl]ethenyl}-2-hydroxyphenyl-N-methylcarbamate] | 93.12 ± 4.56
11 | CCN(CC)C(=O)Oc1ccc(/C=C/S(=O)(=O)Cc2ccc(C(C)(C)C)cc2)cc1OC(=O)N(CC)CC [Compound G1-1, (E)-4-{2-[(4-t-butylphenyl)mesyl]ethenyl}-1,2-phenylenebis(diethylcarbamate)] | 77.13 ± 7.40
12 | CCOC(CS(=O)(=O)/C=C/c1ccc(OC(C)=O)c(OC(=O)Nc2ccc(NC)cc2)c1)C(OCC)c1ccc(OCc2ccccc2)c(O)c1 (centres unmarked) [Compound H2-4, (E)-4-{2-[3-(4-benzyloxy-3-hydroxyphenyl)-2,3-diethoxypropyl]sulfonylethenyl}-2-[N-(4-methylaminophenyl)carbamoyloxy]phenyl acetate] | 95.20 ± 6.06
13 | COCCN(C)C(=O)Oc1cc(/C=C/S(=O)(=O)CCc2cccc(-c3ccc(C)o3)c2)ccc1OC(C)=O [Compound J1-4, (E)-2-[N-(2-methoxyethyl)-N-methylcarbamoyloxy]-4-{2-[3-(5-methylfur-2-yl)phenylethylsulfonyl]ethenyl}phenyl acetate] | 88.65 ± 5.41
14 | CC(Br)C(Br)COc1cc(/C=C/S(=O)(=O)CCc2ccc(OCC(F)(F)F)cc2)ccc1OC(=O)Nc1ccsc1 (centres unmarked) [Compound K1-3, (E)-2-(2,3-dibromobutoxy)-4-{2-[4-(2,2,2-trifluoroethoxy)phenylethylsulfonyl]ethenyl}phenyl-N-(thien-3-yl)carbamate] | 87.28 ± 4.11
15 | C=CCOc1ccc(C/C=C/S(=O)(=O)/C=C/c2ccc(OC(C)=O)c(OC(=O)N(CC=C)CC=C)c2)cc1 [Compound K1-4, 4-{(E)-2-[(E)-3-(4-allyloxyphenyl)prop-1-en-1-yl]sulfonylethenyl}-2-(N,N-diallylcarbamoyloxy)phenyl acetate] | 74.20 ± 6.58
16 | COc1cc(/C=C/S(=O)(=O)Cc2cc(OC)c(OC)c(OC)c2)ccc1OC(=O)N(c1ccccc1)c1ccccc1 [Compound K3-3, (E)-2-methoxy-4-{2-[(3,4,5-trimethoxyphenyl)mesyl]ethenyl}-phenyl-N,N-diphenylcarbamate] | 98.53 ± 3.08
17 | O=C(NC(=O)C(F)(F)F)Oc1ccc(/C=C/S(=O)(=O)C(F)(F)c2ccc(Oc3ccccn3)cc2)cc1OC(=O)C(F)(F)C(F)(F)F [Compound L1-4, (E)-5-{2-[(4-[pyridin-2-yl-oxy]phenyl)difluoromethylsulfonyl]ethenyl}-2-[N-(2,2,2-trifluoroacetyl)carbamoyloxy]phenyl-2,2,3,3,3-pentafluoropropionate] | 83.22 ± 5.98
18 | CCN(C)C(=O)Oc1ccc(/C=C/S(=O)(=O)CC(c2ccc(-c3ccc(OC)c(OC)c3)cc2)[N+](=O)[O-])cc1OC(=O)N(C)CC (centres unmarked) [Compound M1-1, (E)-4-{2-[2-(3′,4′-dimethoxy-[1,1′-biphenyl]-4-yl)-2-nitroethylsulfonyl]ethenyl}-1,2-phenylenebis(N-ethyl-N-methylcarbamate)] | 101.36 ± 5.21
19 | CN(C)c1ccc(CC(=O)Oc2cc(/C=C/S(=O)(=O)C(Br)c3ccc(Cc4ccc(N(C)C)cc4)cc3)ccc2OC(=O)N2CCCC2C(F)(F)F)cc1 (centres unmarked) [Compound M1-5] | 87.24 ± 2.97
20 | Cc1ccc(N2CCN(C(=O)Oc3ccc(/C=C/S(=O)(=O)CCCC(c4ccc(OC(=O)CN(C)C)cc4)N(C)C)cc3OC(=O)N(C)c3ccccc3)CC2)cc1 (centres unmarked) [Compound P1-1, (E)-4-{2-[4-(dimethylamino)-4-(4-(N,N-dimethylglycyloxy)phenyl)butylsulfonyl]ethenyl}-2-(N-methyl-N-phenylcarbamoyloxy)phenyl-4-(p-methylphenyl)piperazine-1-carboxylate] | 88.13 ± 3.43
21 | COc1ccc(CC(=O)Oc2ccc(C(N)CS(=O)(=O)/C=C/c3ccc(OC(C)(C)C)c(OC(=O)N(C)c4ccccc4)c3)cc2)cc1 (centres unmarked) [Compound P1-3, (E)-4-{1-amino-2-[4-t-butoxy-3-(N-methyl-N-phenylcarbamoyloxy)styrylsulfonyl]ethyl}phenyl-2-(4-methoxyphenyl)acetate] | 79.20 ± 6.53
22 | COc1ccc(CC(=O)Oc2ccc(/C(C)=C/S(=O)(=O)/C=C/c3ccc(OC(=O)N(C)C)c(O[Si](C)(C)CCl)c3)cc2)cc1 [Compound P1-7, 4-{(E)-1-[(E)-3-(chloromethyldimethylsiloxy)-4-(N,N-dimethylcarbamoyloxy)styrylsulfonyl]prop-1-en-2-yl}phenyl-2-(4-methoxyphenyl) acetate] | 88.07 ± 5.03
23 | CC[Si](CC)(Oc1ccc(C(Cl)S(=O)(=O)/C=C/c2ccc(OC(=O)N3CC(C)OC(C)C3)c(OC(=O)c3cccc(Cl)c3OC)c2)cc1)c1ccccc1 (centres unmarked) [Compound R1-5, (E)-4-{2-[4-(diethylphenylsiloxy)phenylchloromesyl]ethenyl}-2-(3-chloro-2-methoxybenzoyloxy)phenyl-2,6-dimethylmorpholine-4-carboxylate] | 92.45 ± 3.93
24 | Cc1ccc(S(=O)(=O)Oc2ccc(CS(=O)(=O)/C=C/c3ccc(OS(=O)(=O)c4ccc(C)cc4)c(OC(=O)N(C)S(=O)(=O)c4ccc(C)cc4)c3)cc2)cc1 [Compound S6-6, (E)-2-(N-methyl-N-p-tosylcarbamoyloxy)-4-{2-[(4-p-tosyloxyphenyl)mesyl]ethenyl}phenyl p-toluenesulfonate] | 96.01 ± 7.32
25 | O=C(/C=C/c1ccc(O)c(O)c1)OCCc1ccccc1 [Positive control group, caffeic acid phenethyl ester, reference compound] | 79.21 ± 6.59
26 | (E)-2-[(methylamino)methoxy]-4-{2-[1-(4′-nitro-[1,1′-biphenyl]-4-yl)ethylsulfonyl]ethenyl}phenylcarbamate [Compound M1-3] | 84.07 ± 3.19

From patent publication US12410124B2 (priority 2019, dated 2025)
